The record followed here is patent publication US20260048062A1, “FUSED AMINO PYRIMIDINE COMPOUNDS FOR TREATMENT OF PSYCHOSIS AND PSYCHOTIC DISORDERS” (Ovid Therapeutics Inc., priority 2024, published 2026).

One experiment concerns the target T1, KCC2 (Homo sapiens, UniProt Q9H2X9).
T1 construct: expressed in transfected cells; host or cells: HEK-293 (ATCC CRL-1573), transient transfection
T1 sequence (Q9H2X9 1-1116 isoform Q9H2X9-2): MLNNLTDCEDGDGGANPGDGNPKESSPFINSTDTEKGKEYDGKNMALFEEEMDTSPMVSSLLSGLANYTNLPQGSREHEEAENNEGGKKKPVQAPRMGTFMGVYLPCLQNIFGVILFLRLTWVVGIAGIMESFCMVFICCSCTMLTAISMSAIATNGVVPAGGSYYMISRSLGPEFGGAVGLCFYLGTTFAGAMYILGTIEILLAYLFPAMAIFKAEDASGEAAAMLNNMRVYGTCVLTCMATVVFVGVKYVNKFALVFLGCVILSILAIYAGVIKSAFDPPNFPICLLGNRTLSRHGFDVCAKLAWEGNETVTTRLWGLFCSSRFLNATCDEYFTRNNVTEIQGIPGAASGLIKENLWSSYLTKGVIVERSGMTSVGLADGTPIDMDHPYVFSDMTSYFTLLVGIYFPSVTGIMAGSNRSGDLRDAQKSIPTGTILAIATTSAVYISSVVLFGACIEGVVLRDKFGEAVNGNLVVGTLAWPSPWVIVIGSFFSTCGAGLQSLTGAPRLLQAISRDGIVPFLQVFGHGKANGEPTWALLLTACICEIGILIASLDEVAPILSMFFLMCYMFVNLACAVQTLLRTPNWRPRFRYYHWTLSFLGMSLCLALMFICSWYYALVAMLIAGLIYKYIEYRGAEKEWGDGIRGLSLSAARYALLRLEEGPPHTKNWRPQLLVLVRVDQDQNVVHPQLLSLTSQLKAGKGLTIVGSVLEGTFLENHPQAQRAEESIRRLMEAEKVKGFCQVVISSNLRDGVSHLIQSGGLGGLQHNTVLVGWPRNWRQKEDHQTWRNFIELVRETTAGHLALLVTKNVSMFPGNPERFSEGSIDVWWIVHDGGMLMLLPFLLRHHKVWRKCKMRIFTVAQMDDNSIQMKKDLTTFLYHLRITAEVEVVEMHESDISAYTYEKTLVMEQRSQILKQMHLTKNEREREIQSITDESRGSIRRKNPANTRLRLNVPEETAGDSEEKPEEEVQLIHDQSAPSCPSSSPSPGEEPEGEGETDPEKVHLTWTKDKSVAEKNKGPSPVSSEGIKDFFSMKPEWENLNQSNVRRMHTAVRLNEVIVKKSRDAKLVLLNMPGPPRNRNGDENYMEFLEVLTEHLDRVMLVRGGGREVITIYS
Briefly: Biotinylation, plasma membrane level of KCC2 in HEK-293 cells. Type of experiment: cell-based. As to conditions: 15 min. The method, then: Cell Culture and biotinylation. HEK-293 cells were purchased from ATCC (CRL-1573) and transfected with human KCC2 and GFP expression plasmids using Lipofectamine 2000. Cells were utilized for experimentation 48-72 h following transfection. Cells were biotinylated at 4° C. using NHS-Biotin. Following lysis and purification on immobilized avidin beads, cell surface and total fractions were subject to immunoblotting as outlined previously (Conway et al., 2017, supra).
The reliability of the biotinylation procedure was assessed via immunoblotting with antibodies against the cytosolic protein actin. Actin was present in the total lysates but was absent from the surface fractions (FIG. 2C).

For experiment [1], the system named is 18-20 Div hippocampal neurons. Kind of experiment: Gramicidin perforated patch clamp, EGABA in hippocampal neurons. In kind it is cell-based, Sprague Dawley. As for the experimental part:
Neuronal Cultures. Hippocampal neurons were prepared from Sprague Dawley E18 embryos and plated at 450,000 per dish and maintained at 37° C. in a humidified 5% CO2 incubator for 10-25 days before experimentation (Lee et al., Nat. Neurosci. 14, 736-743 (2011)).
At this developmental stage, GABAAR receptor activation leads to hyperpolarization, a phenomenon critically dependent upon KCC2 (Kontou et al., J Biol Chem, 100364 (2021)).
Neuronal Patch clamp assays. Neuronal cell culture recordings were performed in bath saline at 34° C. For gramicidin perforated-patch experiments, pipettes contained (in mM): 140 KCl and 10 HEPES, pH 7.4 KOH. […] Bath saline contained the following (in mM): 140 NaCl, 2.5 KCl, 2.5 CaCl2, 2.5 MgCl2, 10 HEPES, and 11 glucose, pH 7.4 NaOH (Kontou et al., 2021, supra). All compound solutions were applied to cells using a three-barreled 700 μm pipe positioned just above the cell (Warner Instruments). […] 10 mV voltage-ramp protocols over 1-s periods were used to determine the reversal potentials of the leak-subtracted muscimol-activated GABAAR currents. All voltages from whole-cell experiments were corrected offline using a calculated liquid junction potential value (13.6 mV) in Clampex (Molecular Devices). For gramicidin perforated-patch experiments, intracellular Cl^− values were back-calculated using measured EGABA values and the Nernst equation: […]
Measurements were performed in the presence of bumetanide […] and tetrodotoxin (TTX; 300 nM) to limit the contributions of NKCC1 and activity dependent shifts in chloride levels, respectively (Lee et al., 2011, supra).
On the technique in general: Patch clamp records ionic current or voltage across a cell membrane.

As for `C[C@@H]1CN(c2nc3c(c(Nc4ccc(C5CCCCC5)cc4)n2)COC3)CCO1` [Compound A, (R)—N-(4-cyclohexylphenyl)-2-(2-methylmorpholino)-5,7-dihydrofuro[3,4-d]pyrimidin-4-amine], the entries for the “level of KCC2 on the plasma membrane (surface/total)” value on KCC2 (0.3 μM) and at KCC2 (3 μM) were 94.5±8.4 % of control and 104.7±8.4 % of control, respectively. Moreover, in experiment [1] (300 nM group, before treatment, bumetanide and TTX present), the “EGABA at 0 min” value is −75±3.1 mV. For the same compound, the “EGABA at 15 min” value in experiment [1] (300 nM, 15 min, bumetanide and TTX present) is listed as −85.1±4.2 mV. Further, the “reduction in Cl−” value in experiment [1] (300 nM, 15 min, from EGABA by Nernst equation) was 2.2 ± 0.6 mM.
